Experimental data published in ChEMBL document CHEMBL6103652, “Niacin Ester Derivative of Brefeldin A as a Potential Dual-Target Arf1/BMX Inhibitor for Bladder Cancer” (J Nat Prod, 2025).
In brackets after ≈: the same amount, converted by molar mass. Activity calls are given as the source filed them. The calls are words filed in the database; no cut-off is given here.

Key:
[1] = tested on: T-24; experiment: Antiproliferative activity against human T24 cells assessed as inhibition of cell proliferation at 0.25 uM incubated for 120 hrs by MTT assay relative to control; type: functional
[2] = tested on: Huh-7; experiment: Antiproliferative activity against human Huh-7 cells assessed as inhibition of cell proliferation measured after 72 hrs by MTT assay; type: functional, cell-based; conditions: Huh-7, 72 h
[3] = tested on: A549; experiment: Antiproliferative activity against human A549 cells assessed as inhibition of cell proliferation measured after 72 hrs by MTT assay; type: functional, cell-based; conditions: A549, 72 h
[4] = tested on: HCT-116; experiment: Antiproliferative activity against human HCT-116 cells assessed as inhibition of cell proliferation measured after 72 hrs by MTT assay; type: functional, cell-based; conditions: HCT-116, 72 h
[5] = tested on: L1210; experiment: Antiproliferative activity against mouse L1210 cells assessed as inhibition of cell proliferation measured after 72 hrs by MTT assay; type: functional, cell-based; conditions: L1210, 72 h
[6] = tested on: T-24; experiment: Inhibition of cell migration in human T24 cells at 0.25 uM incubated for 12 hrs by scratch assay (reference value: 66 %); type: functional
[7] = tested on: T-24; experiment: Inhibition of cell migration in human T24 cells at 0.125 uM incubated for 12 hrs by scratch assay (reference value: 66 %); type: functional; conditions: T-24, 12 h
[8] = tested on: T-24; experiment: Inhibition of cell migration in human T24 cells at 0.50 uM incubated for 12 hrs by scratch assay (reference value: 66 %); type: functional
[9] = tested on: T-24; experiment: Inhibition of cell migration in human T24 cells at 0.25 uM incubated for 24 hrs by scratch assay (reference value: 88 %); type: functional; conditions: T-24, 24 h
[10] = tested on: T-24; experiment: Inhibition of cell migration in human T24 cells at 0.50 uM incubated for 24 hrs by scratch assay (reference value: 88 %); type: functional; conditions: T-24, 24 h
[11] = tested on: T-24; experiment: Inhibition of colony formation in human T24 cells at 0.50 uM measured after 10 days by crystal violet staining based analysis relative to control; type: functional; conditions: T-24, 240 h, time 10 day
[12] = tested on: T-24; experiment: Induction of cell cycle arrest in human T24 cells assessed as accumulation of cells at S phase at 0.13 uM incubated for 24 hrs by RNase A/Propidium Iodide staining based flow cytometry analysis (reference value: 31.27 %); type: functional
[13] = tested on: T-24; experiment: Induction of cell cycle arrest in human T24 cells assessed as accumulation of cells at S phase at 0.50 uM incubated for 24 hrs by RNase A/Propidium Iodide staining based flow cytometry analysis (reference value: 31.27 %); type: functional; conditions: dose 0.5 µM
[14] = tested on: T-24; experiment: Induction in apoptosis in human T24 cells assessed as early apoptotic cells at 0.13 uM incubated for 48 hrs by Annexin V-FITC staining based flow cytometry analysis (reference value: 3.64 %); type: functional
[15] = tested on: T-24; experiment: Induction in apoptosis in human T24 cells assessed as late apoptotic cells at 0.25 uM incubated for 48 hrs by Annexin V-FITC staining based flow cytometry analysis (reference value: 4.78 %); type: functional
[16] = tested on: T-24; experiment: Induction in apoptosis in human T24 cells assessed as viable cells at 0.5 uM incubated for 48 hrs by Annexin V-FITC staining based flow cytometry analysis (reference value: 90.44 %); type: functional; conditions: read-out: Activity
[17] = tested on: T-24; experiment: Induction in apoptosis in human T24 cells assessed as early apoptotic cells at 0.5 uM incubated for 48 hrs by Annexin V-FITC staining based flow cytometry analysis (reference value: 3.64 %); type: functional
[18] = molecular target: T1, Cytoplasmic tyrosine-protein kinase BMX (Homo sapiens) (UniProt P51813); experiment: Induction of thermal stabilization of BMX in human T24 cells pretreated for 2 hrs followed by pronase addition and measured after 25 mins by DARTS assay; type: cell-based; conditions: dose 0.2-5 mM
T1 sequence (whole entry): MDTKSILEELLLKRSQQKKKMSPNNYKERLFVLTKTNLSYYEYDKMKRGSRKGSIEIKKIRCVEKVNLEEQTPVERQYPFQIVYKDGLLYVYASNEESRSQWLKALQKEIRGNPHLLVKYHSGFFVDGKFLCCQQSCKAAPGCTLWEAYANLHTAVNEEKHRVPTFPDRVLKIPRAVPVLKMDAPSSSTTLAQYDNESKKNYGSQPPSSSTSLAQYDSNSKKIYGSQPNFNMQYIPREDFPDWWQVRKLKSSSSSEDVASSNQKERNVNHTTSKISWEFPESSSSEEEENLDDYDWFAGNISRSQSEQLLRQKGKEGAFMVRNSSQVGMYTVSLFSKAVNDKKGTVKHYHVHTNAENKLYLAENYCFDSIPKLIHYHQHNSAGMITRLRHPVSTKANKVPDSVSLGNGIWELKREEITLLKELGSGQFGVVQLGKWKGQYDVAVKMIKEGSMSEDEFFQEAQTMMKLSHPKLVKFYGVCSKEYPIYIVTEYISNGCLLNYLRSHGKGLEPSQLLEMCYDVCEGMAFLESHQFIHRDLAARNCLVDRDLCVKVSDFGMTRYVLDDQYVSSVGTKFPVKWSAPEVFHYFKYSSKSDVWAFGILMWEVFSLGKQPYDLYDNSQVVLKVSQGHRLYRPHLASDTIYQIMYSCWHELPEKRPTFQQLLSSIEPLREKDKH

[19] = Downregulation of p-BMX expression level in human T24 cells at 0.5 uM incubated for 24 hrs by Western blotting analysis relative to control; type: functional, T-24
[20] = Downregulation of p-AKT expression level in human T24 cells at 0.13 to 0.50 uM incubated for 24 hrs by Western blotting analysis relative to control; type: functional, T-24; conditions: dose 0.13-0.5 µM, at 0.13 to 0.5 µM
[21] = Toxicity in ICR mouse assessed as body weight change at 100 mg/kg, ip administered once for 14 days; type: organism-based; conditions: in vivo, 336 h, time 14 day
[22] = Half life in Sprague-Dawley rat at 5 mg/kg, iv measured upto 24 hrs; type: ADME, organism-based; conditions: in vivo
[23] = Cmax in Sprague-Dawley rat at 5 mg/kg, iv measured upto 24 hrs; type: ADME, organism-based; conditions: in vivo
[24] = AUC(0 to t) in Sprague-Dawley rat at 5 mg/kg, iv measured upto 24 hrs; type: ADME, organism-based; conditions: in vivo
[25] = Clearance in Sprague-Dawley rat at 5 mg/kg, iv measured upto 24 hrs; type: ADME, organism-based; conditions: in vivo
[26] = tested on: MB49; experiment: Antitumor activity against mouse MB49 cells implanted in male C57BL/6 mouse model assessed as reduction in tumor volume at 1 mg/kg,iv bid measured after 14 days; type: functional, organism-based; conditions: time 14.0 day
[27] = Toxicity in male C57BL/6 mouse allografted with mouse MB49 cells assessed as body weight change at 1 mg/kg,iv bid measured after 14 days; type: organism-based; conditions: in vivo, 336 h, time 14 day
[28] = Toxicity in male C57BL/6 mouse allografted with mouse MB49 cells assessed as tumor cell necrosis at 1 mg/kg,iv bid measured after 14 days by H and E staining based analysis; type: organism-based; conditions: in vivo, 336 h, time 14 day
[29] = tested on: MB49; experiment: Antitumor immunity against mouse MB49 cells implanted in male C57BL/6 mouse assessed as increase in infiltration of CD4+ cells at 1 mg/kg,iv bid measured after 14 days immunofluorescence based analysis; type: functional, organism-based; conditions: time 14.0 day
[30] = Cytotoxicity against human LO2 cells measured after 72 hrs by MTT assay; type: toxicity, cell-based, L02
[31] = Solubility of the compound in Solutol HS-15; type: physicochemical
[32] = Toxicity in male C57BL/6 mouse allografted with mouse MB49 cells assessed as adverse effect at 1 mg/kg,iv bid measured after 14 days; type: organism-based; conditions: in vivo, 336 h, time 14 day

**Q.** For C[C@H]1CCC/C=C/[C@@H]2C[C@H](O)C[C@H]2[C@H](OC(=O)c2cccnc2)/C=C/C(=O)O1, which inhibition at 0.25 µM [1] is on record?
**A.** The inhibition at 0.25 µM was 91%.

**Q.** And the IC50 [2]?
**A.** Its IC50 is 1000 nM.

**Q.** And the IC50 [3]?
**A.** Its IC50 is 230 nM.

**Q.** What about the IC50 [4] of the same molecule?
**A.** The IC50 was 580 nM.

**Q.** And the IC50 [5]?
**A.** Its IC50 is 6.18 µM.

**Q.** What about the wound closure at 0.25 µM [6] of the same molecule?
**A.** The wound closure at 0.25 µM was 17%.

**Q.** What about the wound closure at 0.125 µM [7] of the same molecule?
**A.** The wound closure at 0.125 µM was 22%.

**Q.** And the wound closure at 0.5 µM [8]?
**A.** Its wound closure at 0.5 µM is 13%.

**Q.** What about the wound closure at 0.25 µM [9] of the same molecule?
**A.** The wound closure at 0.25 µM was 26%.

**Q.** What about the wound closure at 0.5 µM [10] of the same molecule?
**A.** Its wound closure at 0.5 µM is 17%.

**Q.** And the inhibition at 0.5 µM [11]?
**A.** Its inhibition at 0.5 µM is 100%.

**Q.** And the Activity [12]?
**A.** The Activity was 28.6%.

**Q.** And the Activity [13]?
**A.** The Activity was 19.52%.

**Q.** What about the Activity [14] of the same molecule?
**A.** Its Activity is 5.52%.

**Q.** And the Activity [15]?
**A.** The Activity was 23.01%.

**Q.** What about the viability at 0.5 µM [16] of the same molecule?
**A.** Its viability at 0.5 µM is 65.6%.

**Q.** And the Activity [17]?
**A.** The Activity was 6.11%.

**Q.** What about the Activity [18] of the same molecule?
**A.** The Activity was “Dose-dependent-effect”.

**Q.** And the Activity [19]?
**A.** The Activity was 35%.

**Q.** And the Activity [20]?
**A.** The Activity was 46%.

**Q.** And the Activity [21]?
**A.** Its Activity is “Non-toxic”.

**Q.** And the half-life [22]?
**A.** The half-life was 21.6 min.

**Q.** And the Cmax [23]?
**A.** Its Cmax is 1460 ng/mL.

**Q.** And the AUC(0-t) at 24 h [24]?
**A.** The AUC(0-t) at 24 h was 1350 ng·h/mL.

**Q.** And the clearance [25]?
**A.** The clearance was 68 mL/min/kg.

**Q.** And the Activity [26]?
**A.** Its Activity is “Active”.

**Q.** And the Activity [27]?
**A.** The Activity was “Non-toxic”.

**Q.** And the Activity [28]?
**A.** The Activity was “Non-toxic”.

**Q.** And the Activity [29]?
**A.** Its Activity is “Active”.

**Q.** And the IC50 at 72 h [30]?
**A.** The IC50 at 72 h was 790 nM.

**Q.** And the solubility [31]?
**A.** Its solubility is 2000 µg/mL (≈ 5.19 mM).

**Q.** What about the Activity [32] of the same molecule?
**A.** Its Activity is “Non-toxic”.
